Results as given in PMC4306137, “The First Small-Molecule Inhibitors of Members of the Ribonuclease E Family” (Scientific Reports, 2015).
Values joined by “and” are separate entries in the source; they are usually repeats but may differ in a detail not shown here. Equal values may be shown once. “Also recorded” adds a separate entry of the source.

Assays:
E. coli NTH-RNase E [1] = target: T1, E. coli NTH-RNase E (Escherichia coli, UniProt P21513); experiment: Discontinuous cleavage assay (pBR13-fl substrate), E. coli NTH-RNase E; assay type: biochemical; settings: for IC50: E. coli enzyme, pre-incubation 37°C 20 min, 20% DMSO, NI = no inhibition (up to 40 mM tested), read-out: Nominal IC50 RNase E; for Inhibition of catalysis by E. coli RNase E (in words): discontinuous cleavage assay, conditions used
T1 sequence (P21513 1-529): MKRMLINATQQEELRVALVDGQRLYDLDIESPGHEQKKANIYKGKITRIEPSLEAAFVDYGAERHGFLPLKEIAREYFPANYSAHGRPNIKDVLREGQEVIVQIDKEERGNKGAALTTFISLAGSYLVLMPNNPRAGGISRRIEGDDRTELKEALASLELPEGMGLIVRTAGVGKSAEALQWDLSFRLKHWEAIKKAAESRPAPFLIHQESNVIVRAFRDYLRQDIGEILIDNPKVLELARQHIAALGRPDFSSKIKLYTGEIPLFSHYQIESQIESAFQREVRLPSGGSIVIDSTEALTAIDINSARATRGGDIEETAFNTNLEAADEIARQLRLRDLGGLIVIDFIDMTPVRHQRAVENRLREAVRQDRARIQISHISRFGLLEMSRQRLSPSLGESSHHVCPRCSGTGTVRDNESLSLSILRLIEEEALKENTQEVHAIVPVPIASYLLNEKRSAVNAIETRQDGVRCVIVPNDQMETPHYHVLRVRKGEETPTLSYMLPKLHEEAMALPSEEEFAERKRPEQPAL
Procedure: The compounds were obtained from Maybridge and re-suspended in 100% DMSO. […] E. coli NTH-RNase E was pre-incubated with and without the compounds at 37°C for 20 min before the addition of substrate in a buffer containing 25 mM Bis-Tris Propane (pH 8.3), 100 mM NaCl, 15 mM MgCl2, 0.1% Triton X-100, 1 mM DTT and 20% DMSO. The enzyme monomer and substrate concentrations at the start of the reaction were 0.5 and 62 nM, respectively. […] Reaction products were analysed by electrophoresis using a denaturing 15% polyacrylamide, sequencing-type gel. Detection was via a FLA-5100 scanner (Fuji). Substrate and product were quantified using AIDA software (Raytest Isotopenmessgerate GmbH). Initial rates of reaction at increasing compound concentrations were obtained by establishing the slope representing percentage product generated over time during the initial, linear phase of the reaction. IC50 values were calculated by plotting the percentage inhibition of initial rate against compound concentration.

E. coli NTH-RNase E [2] = target: T1, E. coli NTH-RNase E; experiment: SPR binding to immobilized E. coli NTH-RNase E; settings: for SPR binding curve behaviour (specific or non-specific binding): E. coli NTH-RNase E, plateau at higher concentrations = specific; for Kd: read-out: Steady State KD value; for Steady State KD value: apparent KD from SPR steady state fit, binding to E. coli RNase E, PBS with 5% DMSO
Procedure: (§1) E. coli and M. tuberculosis RNase E were immobilized covalently using amine coupling to the surface of a Biacore CM5 sensor chip (GE Healthcare). Immobilization levels were approximately 1500 RUs. Assessment of compound binding were conducted by injecting varying compound concentrations in PBS containing 5% DMSO at flow rates of 30–90 μl/min for ~60 s over the reference and test flow cells. A Biacore T100 instrument was used and the data collected was reference and buffer subtracted prior to steady state analysis using data fitting functions provided in the Biacore T100 Evaluation Software.

M. tuberculosis RNase E [3] = target: T2, M. tuberculosis RNase E (Mycobacterium tuberculosis, UniProt P71905); experiment: SPR binding to immobilized M. tuberculosis RNase E; settings: data not shown
T2 sequence (P71905 whole entry): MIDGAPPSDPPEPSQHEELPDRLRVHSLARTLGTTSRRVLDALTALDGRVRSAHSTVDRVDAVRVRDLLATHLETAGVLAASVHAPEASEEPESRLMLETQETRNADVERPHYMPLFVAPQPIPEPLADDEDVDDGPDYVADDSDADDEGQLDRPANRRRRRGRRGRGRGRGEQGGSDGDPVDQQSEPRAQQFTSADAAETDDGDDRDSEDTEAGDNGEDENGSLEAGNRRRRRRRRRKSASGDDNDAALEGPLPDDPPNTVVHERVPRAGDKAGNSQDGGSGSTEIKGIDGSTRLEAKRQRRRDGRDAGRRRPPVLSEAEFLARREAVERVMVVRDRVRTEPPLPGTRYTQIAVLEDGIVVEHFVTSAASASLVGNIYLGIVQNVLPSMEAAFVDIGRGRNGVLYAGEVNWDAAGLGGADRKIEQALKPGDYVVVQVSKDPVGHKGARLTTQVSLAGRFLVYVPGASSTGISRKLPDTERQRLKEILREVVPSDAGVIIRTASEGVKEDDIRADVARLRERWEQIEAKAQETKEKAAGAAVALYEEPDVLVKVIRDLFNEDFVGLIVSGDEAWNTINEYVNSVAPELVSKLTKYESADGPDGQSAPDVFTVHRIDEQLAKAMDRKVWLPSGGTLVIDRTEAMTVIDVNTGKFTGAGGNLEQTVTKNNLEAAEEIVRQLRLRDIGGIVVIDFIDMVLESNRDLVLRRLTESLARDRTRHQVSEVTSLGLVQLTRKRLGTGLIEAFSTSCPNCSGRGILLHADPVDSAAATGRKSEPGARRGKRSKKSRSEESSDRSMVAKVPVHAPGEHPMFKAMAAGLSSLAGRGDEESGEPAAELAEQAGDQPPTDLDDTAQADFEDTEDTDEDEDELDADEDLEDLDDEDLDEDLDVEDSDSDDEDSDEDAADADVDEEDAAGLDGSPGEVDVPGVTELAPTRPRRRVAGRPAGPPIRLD
Procedure: as §1

E. coli RNase G = target: T3, E. coli RNase G (Escherichia coli, UniProt P0A9J0); experiment: Discontinuous cleavage assay, E. coli RNase G; assay type: biochemical; settings: for Inhibition of the activity of RNase G (in words): E. coli RNase G; for IC50: E. coli enzyme, conditions as for RNase E, NI = no inhibition (up to 40 mM tested), read-out: Nominal IC50 RNase G
T3 construct: made in house
T3 sequence (P0A9J0 whole entry): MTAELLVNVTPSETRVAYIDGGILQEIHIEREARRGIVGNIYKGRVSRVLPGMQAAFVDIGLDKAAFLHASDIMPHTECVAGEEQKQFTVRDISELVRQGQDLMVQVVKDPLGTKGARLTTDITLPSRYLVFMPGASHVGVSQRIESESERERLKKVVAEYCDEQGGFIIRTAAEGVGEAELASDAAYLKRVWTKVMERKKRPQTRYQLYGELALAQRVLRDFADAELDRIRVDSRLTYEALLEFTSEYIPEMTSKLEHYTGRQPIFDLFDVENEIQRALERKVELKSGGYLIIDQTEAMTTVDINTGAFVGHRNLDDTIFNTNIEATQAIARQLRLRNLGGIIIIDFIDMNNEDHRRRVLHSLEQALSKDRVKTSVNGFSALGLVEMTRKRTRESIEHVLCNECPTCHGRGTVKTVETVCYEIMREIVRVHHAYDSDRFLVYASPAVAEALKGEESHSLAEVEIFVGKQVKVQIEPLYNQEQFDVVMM
Procedure: The compounds were obtained from Maybridge and re-suspended in 100% DMSO. Discontinuous cleavage assays were done using a 3′ fluorescein-labelled, 5′-monophosphorylated version of BR13, a well-characterised substrate of RNase E, with the sequence 5′-[…]↓AUUUG[44]. E. coli NTH-RNase E was pre-incubated with and without the compounds at 37°C for 20 min before the addition of substrate in a buffer containing 25 mM Bis-Tris Propane (pH 8.3), 100 mM NaCl, 15 mM MgCl2, 0.1% Triton X-100, 1 mM DTT and 20% DMSO. The enzyme monomer and substrate concentrations at the start of the reaction were 0.5 and 62 nM, respectively. The inhibition assays with RNase G and RNase A (Sigma) were carried out as above. Reaction products were analysed by electrophoresis using a denaturing 15% polyacrylamide, sequencing-type gel. Detection was via a FLA-5100 scanner (Fuji). Substrate and product were quantified using AIDA software (Raytest Isotopenmessgerate GmbH). Initial rates of reaction at increasing compound concentrations were obtained by establishing the slope representing percentage product generated over time during the initial, linear phase of the reaction. IC50 values were calculated by plotting the percentage inhibition of initial rate against compound concentration.

M. tuberculosis RNase E [4] = target: T2, M. tuberculosis RNase E; experiment: Cleavage of pBR13-fl by M. tuberculosis RNase E; assay type: biochemical; settings: 5 mM compound; room temperature; 5% DMSO
Procedure: For M. tuberculosis RNase E (a kind gift from Prof. B. Luisi, University of Cambridge), 1 μM 3′ fluorescently-labelled, 5′ monophosphorylated BR13 was incubated with 50 nM RNase E with and without the compounds in buffer containing 25 mM Tris-HCl (pH 7.5), 100 mM NaCl, 15 mM MgCl2, 1 mM DTT and 5% DMSO at room temperature. Reactions were analysed by electrophoresis using denaturing 20% polyacrylamide gels and visualised using a UV transilluminator.

[5] = compounds at their E. coli RNase E IC50 concentration: 1.9 mM P10, 1.8 mM P11, 3.8 mM M5, combinations at the same concentrations, read-out: Initial rate normalised to 1 for the reaction containing no compound

SMILES: Cc1c(C(=O)NNc2cc(C(F)(F)F)ccc2Cl)n(C)oc1=O [M8]
- IC50 (E. coli NTH-RNase E [1]): ~3.2 mM
- Inhibition of catalysis by E. coli RNase E (in words) (E. coli NTH-RNase E [1]): clearly inhibited catalysis
- SPR binding curve behaviour (specific or non-specific binding) (E. coli NTH-RNase E [2]): consistent with targeting of specific sites
- Kd (E. coli NTH-RNase E [2]): ~3.5 mM

SMILES: CCOC(=O)NC(=O)c1cn(Nc2ncc(Cl)cc2C(F)(F)F)c(=O)[nH]c1=O [M5]
- SPR binding curves, M. tuberculosis RNase E (in words) (M. tuberculosis RNase E [3]): consistent with specific targeting
- IC50 (E. coli NTH-RNase E [1]): 3.8 mM and ~3.8 mM
- activity at 3800 µM (E. coli NTH-RNase E [1]; [5]): 42%
- Inhibition of catalysis by E. coli RNase E (in words) (E. coli NTH-RNase E [1]): clearly inhibited catalysis
- Inhibition of the activity of RNase G (in words) (E. coli RNase G): able to inhibit the activity of RNase G
- IC50 (E. coli RNase G): 3.3 mM and ~3.3 mM
- Inhibition of M. tuberculosis RNase E (in words) (M. tuberculosis RNase E [4]): inhibits activity but appears to be less efficient
- SPR binding curve behaviour (specific or non-specific binding) (E. coli NTH-RNase E [2]): consistent with targeting of specific sites; also recorded: specific binding
- Kd (E. coli NTH-RNase E [2]): ~3 mM

SMILES: Cc1onc(-c2c(Cl)cccc2Cl)c1C(=O)N=S(C)(C)=O [M3]
- IC50 (E. coli NTH-RNase E [1]): > 40 mM
- IC50 (E. coli RNase G): > 40 mM
- SPR binding curve behaviour (specific or non-specific binding) (E. coli NTH-RNase E [2]): consistent with targeting of specific sites
- Kd (E. coli NTH-RNase E [2]): ~0.6 mM

SMILES: Cc1nnsc1-c1onc(C)c1C(=O)O/N=C/c1cccc(Cl)c1 [M9]
- IC50 (E. coli NTH-RNase E [1]): ~18 mM
- Inhibition of catalysis by E. coli RNase E (in words) (E. coli NTH-RNase E [1]): inhibited catalysis but much less efficiently
- Inhibition of the activity of RNase G (in words) (E. coli RNase G): able to inhibit the activity of RNase G
- IC50 (E. coli RNase G): ~24 mM
- SPR binding curve behaviour (specific or non-specific binding) (E. coli NTH-RNase E [2]): consistent with targeting of specific sites
- Kd (E. coli NTH-RNase E [2]): ~2 mM

SMILES: Cc1ccc(S(=O)(=O)NC(=O)NCCSCc2c(C)cc(C)cc2C)cc1 [P11]
- SPR binding curves, M. tuberculosis RNase E (in words) (M. tuberculosis RNase E [3]): consistent with specific targeting
- activity at 1800 µM (E. coli NTH-RNase E [1]; [5]): 62%
- Inhibition of catalysis by E. coli RNase E (in words) (E. coli NTH-RNase E [1]): clearly inhibited catalysis
- Inhibition of the activity of RNase G (in words) (E. coli RNase G): able to inhibit the activity of RNase G
- Inhibition of M. tuberculosis RNase E (in words) (M. tuberculosis RNase E [4]): clear inhibition
- SPR binding curve behaviour (specific or non-specific binding) (E. coli NTH-RNase E [2]): consistent with targeting of specific sites; also recorded: specific binding

SMILES: O=C1c2ccccc2NC(c2cc(Cl)cc(Cl)c2O)N1Cc1cccnc1 (centres unmarked) [M2]
- IC50 (E. coli NTH-RNase E [1]): > 40 mM
- Inhibition of catalysis by E. coli RNase E (in words) (E. coli NTH-RNase E [1]): did not inhibit RNase E
- IC50 (E. coli RNase G): > 40 mM
- SPR binding curve behaviour (specific or non-specific binding) (E. coli NTH-RNase E [2]): bind but at sites other than the intended target
- Steady State KD value (E. coli NTH-RNase E [2]): non-specific

SMILES: Cc1ccc(C)n1-c1nn(S(=O)(=O)c2cccc3nonc23)c2cccc(F)c12 [P6]
- Inhibition of catalysis by E. coli RNase E (in words) (E. coli NTH-RNase E [1]): clearly inhibited catalysis
- Inhibition of the activity of RNase G (in words) (E. coli RNase G): able to inhibit the activity of RNase G
- SPR binding curve behaviour (specific or non-specific binding) (E. coli NTH-RNase E [2]): consistent with targeting of specific sites

SMILES: Cc1ccc(S(=O)(=O)NC(=O)N2CCCN(c3ncnc4scc(-c5ccccc5)c34)CC2)cc1 [P10]
- IC50 (E. coli NTH-RNase E [1]): 1.9 mM and ~1.9 mM
- activity at 1900 µM (E. coli NTH-RNase E [1]; [5]): 44%
- Inhibition of catalysis by E. coli RNase E (in words) (E. coli NTH-RNase E [1]): inhibited RNase E
- Inhibition of the activity of RNase G (in words) (E. coli RNase G): able to inhibit the activity of RNase G
- IC50 (E. coli RNase G): 2.4 mM and ~2.4 mM
- SPR binding curve behaviour (specific or non-specific binding) (E. coli NTH-RNase E [2]): bind at sites other than the intended target; also recorded: non-specific binding
- Steady State KD value (E. coli NTH-RNase E [2]): non-specific
